How the values were obtained:
bile secretion [1] = experiment: Bile secretion test in rats; format: in vivo, male Wistar rats; details: rat, oral, volume in 1 h before administration = 100%
Experimental: Male Wistar rats weighing 200-210 g were fasted overnight and laparotomized under urethane anesthesia(Subcutaneous injection at a dose of 1.5 g/kg). A polyethylene tube was inserted into the common bile duct. The bile was collected for one hour from 30 minutes after the operation. Subsequently, the animals were given orally the test drugs, each 50 mg of which was suspended in 1 ml of 5% gum arabic aqueous solution. The bile was collected for 5 hours after the drug administration. The volume of the bile secreted at hourly intervals after the drug administration was expressed in %, defining the volume secreted for one hour before the drug administration as 100%, as shown in Table 1.
About 500 mg of p-menth-1-ene-8,9-diol were weighed accurately, and suspended in 10 ml of 5% gum arabic aqueous solution. […] Male rats of Wistar strain weighing 200 g were fasted overnight, anesthetized by subcutanous injection of 0.3 g of urethane and laparotomized. A polyethylene tube was inserted into the common bile duct. The bile was collected for one hour from 30 minutes after the operation. […]
About 500 mg of 9-acetoxy-p-menth-1-en-8-ol was weighed accurately and suspended in 10ml of 5% gum arabic aqueous solution. […] Male rats of Wistar strain weighing about 210 g were fasted overnight and anesthetized by subcutaneous injection of 0.32 g of urethane and then laparotomized. A polyethylene tube was inserted into the common bile duct, and the bile secreted through the duct was collected for one hour from 30 minutes after the operation. Subsequently, the choleretic of the present invention was administered orally in a volume of 1.05 ml (250 mg/kg).

bile secretion [2] = experiment: Bile secretion test in dogs; format: in vivo, male mongrel dogs; details: into duodenum; for Bile volume secreted after administration: dog, volume in 1 h before administration = 100%; for Volume of bile secreted relative to one hour before administration: one dog (7.6 kg)
Experimental: Male mongrel dogs weighing approximately 8 kg were anesthetized with intravenous injection of […] of pentobarbital and further with subcutaneous injection of urethane at a dose of 1.0 g/kg and laparotomized. One canula was inserted into the common bile duct and directed to the liver for collection of the bile, and the other canula was inserted into the duodenum for the drug administration. The cholecystic duct was ligated and the gallbladder bile was aspirated with an injection syringe. The operation was finished by suture of the peritoneum. The bile was collected for one hour from 30 minutes after the operation. The animals were given the test drugs, each 50 mg of which was suspended in 1 ml of 5% gum arabic aqueous solution, through the canula for the drug administration. The bile was collected at hourly intervals for 6 hours after the drug administration. Defining the volume of the bile secreted for one hour before the drug administration as 100%, the volume secreted at hourly intervals after the drug administration was expressed in %, as shown in Table 2.
The mean volume secreted for one hour before the drug administration was 1798 μl.
This suspension was used as a choleretic of the present invention. A male mongrel dog weighing 8.8 kg was fasted overnight and anesthetized by subcutaneous injection of 1.0 mg/kg of urethane and laparotomized. One canula was inserted into the common bile duct and directed to the liver for collection of the bile, and the other canula was also inserted into the duodenum for the drug administration. Subsequently, the cholecystic duct was ligated and the gallbladder bile was aspirated with an injection syringe. The operation was finished after suturing the peritoneum. The bile was collected for one hour from 30 minutes after the operation, and subsequently, 44 ml of the test drug prepared above (250 mg/kg) was given through the canula for the drug administration. The volume of the bile secreted for the first, second and third one hour after the drug administration were 2.2, 2.1 and 1.9 times larger, respectively, than that secreted for one hour before the drug administration.
About 2.5 g of 9-propionyloxy-p-menth-1-en-8-ol was weighed accurately and suspended in 50 ml of 5% gum arabic aqueous solution. This suspension was used as a choleretic of the present invention. A male mongrel dog weighing 7.6 kg was fasted overnight and anesthetized by subcutaneous injection of 1.0 mg/kg of urethane and then laparotomized. One canula was inserted into the common bile duct and directed to the liver for collection of the bile, and the other canula into the duodenum for the drug administration. Subsequently, the cholecystic duct was ligated and the gallbladder bile was aspirated with an injection syringe. The operation was finished by suturing the peritoneum. The bile was collected for one hour from 30 minutes after the operation, and 50 ml (330 mg/kg) of the test drug prepared above was administered through the canula for the drug administration. The volume of the bile secreted for the first, second and third one hour after the drug administration was 3.2, 5.0 and 4.7 times larger, respectively, than that secreted for one hour before the drug administration.

[3] = Acute toxicity test in mice; details: mouse, in vivo, oral, parentheses: 95% confidence limit
Experimental: The test drugs were suspended in 5% gum arabic aqueous solution to make 50 mg/ml, and given orally male mice of ddY strain weighing 18-22 g and male rats of Wistar strain weighing 95-120 g. The LD50 values were calculated from the mortality of the animals that ensued during the 72 hours following the drug administration

CCC(O)c1ccccc1 (racemic) [Felicur, phenylpropanol, reference compound]
Bile volume secreted after administration (bile secretion [1]; 250 mg/kg, 0-1 hr): 204% | Bile volume secreted after administration (bile secretion [1]; 250 mg/kg, 1-2 hr): 172% | Bile volume secreted after administration (bile secretion [1]; 250 mg/kg, 2-3 hr): 138% | Bile volume secreted after administration (bile secretion [1]; 250 mg/kg, 3-4 hr): 108% | Bile volume secreted after administration (bile secretion [1]; 250 mg/kg, 4-5 hr): 88% | Bile volume secreted after administration (bile secretion [2]; 50 mg/kg, 0-1 hr): 231% | Bile volume secreted after administration (bile secretion [2]; 50 mg/kg, 1-2 hr): 230% | Bile volume secreted after administration (bile secretion [2]; 50 mg/kg, 2-3 hr): 188% | Bile volume secreted after administration (bile secretion [2]; 50 mg/kg, 3-4 hr): 147%

CC(C)[C@@H]1CC[C@@H](C)C[C@H]1O [1-Menthol, 1-menthol, reference compound]
Bile volume secreted after administration (bile secretion [1]; 80 mg/kg, 0-1 hr): 134% | Bile volume secreted after administration (bile secretion [1]; 80 mg/kg, 1-2 hr): 114% | Bile volume secreted after administration (bile secretion [1]; 80 mg/kg, 2-3 hr): 100% | Bile volume secreted after administration (bile secretion [1]; 80 mg/kg, 3-4 hr): 95% | Bile volume secreted after administration (bile secretion [1]; 80 mg/kg, 4-5 hr): 89% | Bile volume secreted after administration (bile secretion [1]; 230 mg/kg, 0-1 hr): 139% | Bile volume secreted after administration (bile secretion [1]; 230 mg/kg, 1-2 hr): 137% | Bile volume secreted after administration (bile secretion [1]; 230 mg/kg, 2-3 hr): 133% | Bile volume secreted after administration (bile secretion [1]; 230 mg/kg, 3-4 hr): 117% | Bile volume secreted after administration (bile secretion [1]; 230 mg/kg, 4-5 hr): 111% | Bile volume secreted after administration (bile secretion [1]; 750 mg/kg, 0-1 hr): 152% | Bile volume secreted after administration (bile secretion [1]; 750 mg/kg, 1-2 hr): 143% | Bile volume secreted after administration (bile secretion [1]; 750 mg/kg, 2-3 hr): 138% | Bile volume secreted after administration (bile secretion [1]; 750 mg/kg, 3-4 hr): 122% | Bile volume secreted after administration (bile secretion [1]; 750 mg/kg, 4-5 hr): 111%

CCC(=O)OCC(C)(O)C1CC=C(C)CC1 (stereo not drawn) [9-Propionyloxy-p-menth-1-en-8-ol, 9-propionyloxy-p-menth-1-en-8-ol]
LD50 at 72 h [3]: > 4000 mg/kg | Bile volume secreted after administration (bile secretion [1]; 110 mg/kg, 0-1 hr): 135% | Bile volume secreted after administration (bile secretion [1]; 110 mg/kg, 1-2 hr): 117% | Bile volume secreted after administration (bile secretion [1]; 110 mg/kg, 2-3 hr): 100% | Bile volume secreted after administration (bile secretion [1]; 110 mg/kg, 3-4 hr): 87% | Bile volume secreted after administration (bile secretion [1]; 110 mg/kg, 4-5 hr): 74% | Bile volume secreted after administration (bile secretion [1]; 330 mg/kg, 0-1 hr): 147% | Bile volume secreted after administration (bile secretion [1]; 330 mg/kg, 1-2 hr): 139% | Bile volume secreted after administration (bile secretion [1]; 330 mg/kg, 2-3 hr): 118% | Bile volume secreted after administration (bile secretion [1]; 330 mg/kg, 3-4 hr): 104% | Bile volume secreted after administration (bile secretion [1]; 330 mg/kg, 4-5 hr): 86% | Bile volume secreted after administration (bile secretion [1]; 990 mg/kg, 0-1 hr): 176% | Bile volume secreted after administration (bile secretion [1]; 990 mg/kg, 1-2 hr): 174% | Bile volume secreted after administration (bile secretion [1]; 990 mg/kg, 2-3 hr): 153% | Bile volume secreted after administration (bile secretion [1]; 990 mg/kg, 3-4 hr): 130% | Bile volume secreted after administration (bile secretion [1]; 990 mg/kg, 4-5 hr): 120% | Bile volume secreted after administration (bile secretion [2]; 330 mg/kg, 0-1 hr): 322% | Bile volume secreted after administration (bile secretion [2]; 330 mg/kg, 1-2 hr): 497% | Bile volume secreted after administration (bile secretion [2]; 330 mg/kg, 2-3 hr): 472% | Bile volume secreted after administration (bile secretion [2]; 330 mg/kg, 3-4 hr): 402% | Bile volume secreted after administration (bile secretion [2]; 330 mg/kg, 4-5 hr): 367% | Bile volume secreted after administration (bile secretion [2]; 330 mg/kg, 5-6 hr): 324% | Volume of bile secreted relative to one hour before administration (bile secretion [2]; 330 mg/kg, first hour): 3.2 times | Volume of bile secreted relative to one hour before administration (bile secretion [2]; 330 mg/kg, second hour): 5.0 times | Volume of bile secreted relative to one hour before administration (bile secretion [2]; 330 mg/kg, third hour): 4.7 times

C=C(C)C1CC=C(C)CC1 (stereo not drawn) [p-Mentha-1,8-diene, p-mentha-1,8-diene]
Bile volume secreted after administration (bile secretion [1]; 80 mg/kg, 0-1 hr): 101% | Bile volume secreted after administration (bile secretion [1]; 80 mg/kg, 1-2 hr): 100% | Bile volume secreted after administration (bile secretion [1]; 80 mg/kg, 2-3 hr): 100% | Bile volume secreted after administration (bile secretion [1]; 80 mg/kg, 3-4 hr): 94% | Bile volume secreted after administration (bile secretion [1]; 80 mg/kg, 4-5 hr): 91% | Bile volume secreted after administration (bile secretion [1]; 250 mg/kg, 0-1 hr): 104% | Bile volume secreted after administration (bile secretion [1]; 250 mg/kg, 1-2 hr): 108% | Bile volume secreted after administration (bile secretion [1]; 250 mg/kg, 2-3 hr): 109% | Bile volume secreted after administration (bile secretion [1]; 250 mg/kg, 3-4 hr): 108% | Bile volume secreted after administration (bile secretion [1]; 250 mg/kg, 4-5 hr): 104% | Bile volume secreted after administration (bile secretion [1]; 750 mg/kg, 0-1 hr): 111% | Bile volume secreted after administration (bile secretion [1]; 750 mg/kg, 1-2 hr): 125% | Bile volume secreted after administration (bile secretion [1]; 750 mg/kg, 2-3 hr): 128% | Bile volume secreted after administration (bile secretion [1]; 750 mg/kg, 3-4 hr): 131% | Bile volume secreted after administration (bile secretion [1]; 750 mg/kg, 4-5 hr): 128% | Bile volume secreted after administration (bile secretion [2]; 250 mg/kg, 0-1 hr): 220% | Bile volume secreted after administration (bile secretion [2]; 250 mg/kg, 1-2 hr): 213% | Bile volume secreted after administration (bile secretion [2]; 250 mg/kg, 2-3 hr): 185% | Bile volume secreted after administration (bile secretion [2]; 250 mg/kg, 3-4 hr): 110% | Bile volume secreted after administration (bile secretion [2]; 250 mg/kg, 4-5 hr): 85%

Source: patent US4083994A, “Choleretics” (Hisamitsu Pharmaceutical Co., Inc., priority 1975, dated 1978)
